# Measurements taken from patent publication EP0059817A1, “Serpentine, alstonine and sempervirine drugs for the specific inhibition of tumurous and cancerous cells” (priority 1981, dated 1982).
# Where two headings read alike, the source gives them in different places.
# Columns and labels:
# [1] = test system: Cellules primaires de reins de singe; test: cell culture cytotoxicity, normal cells; type: cell-based; settings: 200 µg/ml; en culture de 7 jours dès l'ensemencement
# Protocol: Des cultures de cellules saines (cellules primaires de reins de singe, cellules de lignée "Vero" et "SIRC") et des cultures de cellules cancéreuses (cellules K.B., cellules Hela, cellules Hep II et cellules L)ont reçu une dose de 200 Mg, soit de serpentine, soit d'alstonine, soit de sempervirine, par ml de culture.
# (§1) L'effet cytotoxique spécifique, vis-à-vis des cellules tumorales utilisées, ne s'est jamais démenti au cours des très nombreuses expériences effectuées. Par contre, pour effectuer les cellules saines il a fallu des quantités d'alcaloides au moins dix fois plus grandes (plus de 2 mg/ml). (Les cultures de cellules in-vitro sans mycoplàsmes ont été effectuées dans les conditions classiques et en l'absence d'antibiotique qui pourraient fausser les résultats).
# (§2) Les cellules cancéreuses et saines utilisées ne contenaient pas de mycoplasmes et le milieu de culture ne contenait pas d'antibiotique, ces derniers pouvant sensibiliser les cellules et par conséquent fausser les résultats.
# Cellules K.B. = test: cell culture cytotoxicity, cancer cells; type: cell-based; settings: 200 µg/ml; en culture de 3 jours dès l'ensemencement
# Protocol: as §1, §2
# tumeur MS 301 = test: transplantable mammary cancer of the mouse; type: in vivo, souris de souche Rh0 III; settings: 400 ^gg at the tumour implantation site, twice a day for 15 days from day 3; n=10; p : 0,01
# Description: Action sur le cancer mammaire greffable de la souris • - Vingt souris de 18 à 20g, de souche Rh0 III ont été inoculées, par voie sous-cutanée, par 0,8 " d'un extrait de tumeur MS 301, broyé. Dix souris ont été gardées comme témoins; dix autres vaient, le troisième jour après l'inoculation, 400 ^gg d'alstonine au niveau de l'implantation tumorale, deux fois par jour, pendant quinze- jours. Au seizième jour, les souris étaient anesthésiées et sacrifiées, les tumeurs excisées et pesées. • - La même expérience fut effectuée avec la serpentine au lieu d'alstonine.
# lymphome YC 8 [2] = test: lymphoma YC 8 of the mouse, alstonine and cyclophosphamide; type: in vivo, souris BALB C; settings: for survie (surviving mice/total): i.p., alstonine 400 µg par jour, 8 days from day 3, mixture with 2 mg cyclophosphamide
# Ascite d'Ehrlich [3] = test: Ehrlich ascites tumour in the mouse, serpentine, alstonine, cyclophosphamide; type: in vivo, souris blanches Swiss; settings: for definitive arrest of the Ehrlich ascites tumour (in words): each substance alone, treatment from day 4 or 5 for 10 to 15 days; for survie (surviving mice/total): I.P., serpentine 400 µg par jour, cyclophosphamide 2 ma par jour
# Description: Activité vis-à-vis des tumeurs "Ascite d'Ehrlich" chez la souris - 5 x 10^3 cellules Ascite d'Ehrlich sont inoculées à des souris blanches Swiss de 20-24 g, par voie intrapéritonéale.
# Divers traitements furent appliqués dès le quatrième ou le cinquième jour et pendant dix à quinze jours. […] Un net ralentissement du développement des tumeurs est observé, mais les tumeurs repartent après arrêt du traitement dans le cas du cyclophosphamide seul, le redémarrage peut être plus tardif qu'avec la serpentine ou l'alstonine. Par contre, l'association de serpentine (400 µg par jour) et de cyclophosphamide (2 ma par jour) par voie I.P. permet d'obtenir une survie définitive (survie définitive : survie normale pendant trois mois sans perte de poids) et le pourcentage des survivants varie de 80 à 100% (Tableau IV ci-après). Les souris ainsi guéries augmentent normalement de poids et après quatre à six mois celui-ci est de 24-26 g. Leur aspect est absolument normal et rien ne les distingue de souris saines. (Dans les expériences, seule la survie sans récidive est prise en considération).
# La figurer, où sont portés en abscisses le nombre de jours de traitement et en ordonnées le poids (en gramme) des souris, montre l'évolution de la tumeur d'Ehrlich chez les souris traitées, soit par la serpentine seule (courbe 2), soit par le cyclophosphamide seul (courbe 3), soit par la serpentine + cyclophosphamide (courbe 4) par voie intra- péritonéale et aux doses indiquées ci-dessus. […] Aucun de ces deux traitements ne permet d'obtenir une survie.définitive. Par contre, le mélange de serpentine et de cyclophosphamide permet d'obtenir une survie définitive.
# virus de la grippe = type: in vivo, souris SWISS; settings: for activity against influenza compared with sempervirine: doses comparables; for survie (surviving mice/total): 200 µg i.p. twice a day, 8 days
# Ascite d'Ehrlich [4] = test: Ehrlich ascites tumour in the mouse, serpentine, alstonine, cyclophosphamide; type: in vivo, souris blanches Swiss; settings: voie sous-cutanée, doses as above
# cellules saines = test: cell culture cytotoxicity, healthy cells as a group; type: cell-based; settings: 200 Mg par ml de culture; au bout de huit jours d'observation; reins de singe, Vero, SIRC
# Protocol: as §1, §2
# cellules cancéreuses = test: cell culture cytotoxicity, cancer cells as a group; type: cell-based; settings: 200 Mg par ml de culture; en 24 à 48 heures; K.B., Hela, Hep II, L
# Protocol: as §1, §2
# cancers du sein = test: clinical trials in humans, breast cancer cases; type: in vivo, humains
# Description: Toutefois, on a pu constater au cours des essais cliniques sur l'humain que les β-carbolines quaternaires avaient une demi-vie trop courte pour être administrée sous forme galénique mais que, de façon surprenante, on obtenait d'excellents résultats dans le traitement des cancers chez les humains en utilisant une nouvelle forme galénique constituée de microgranules à libération prolongée des p-carbolines quaternaires. Ces microgranules comprennent une âme neutre constituée d'un grain excipient inerte par exemple un ou plusieurs constituants tels que le sacchorose, l'amidon, le talc, la silice désséchante, le lactose et l'acide stéarique, le grain neutre étant muni d'une première couche comprenant la β-carboline quaternaire puis d'une seconde couche extérieure constituée par une enveloppe microporeuse comprenant au moins un polymère naturel et/ou synthétique appartenant à la classe constituée par la gomme laque, la qomme arabique, la gélatine, l'éthylcellulose, l'acétophtalate d2 cellulose, le triacétate de cellulose, le polyoxyéthylèneglycol, les méthacrylates, le copolymère styrène-acrylonitrile et la polyvinylpyrrolidone.
# A titre d'exemple, on a reproduit ci-après trois cas significatifs relatifs à.des cancers du sein et pour lesquels on a utilisée la serpentine préparéeselon la nouvelle forme galénique objet de l'invention décrite ci-dessus.
# lymphome YC 8 [5] = test: lymphoma YC 8 of the mouse, sempervirine; type: in vivo, souris BALB c; settings: for survie (surviving mice/total): 10 days from day 2
# Description: 34 souris BALB c de 17-20 g sont inoculées par voie intra- péritonéale par […] ascitiques du lymphome YC 8 de la souris fraîchement prélevées et dix souris sont gardées comme témoins.
# 24 souris sont traitées le deuxième jour après inoculation par la sempervirine dissoute en milieu tamponné (pH 7,65) à raison de deux fois par jour par voie intrapéritonéale (300 µ g par jour) et pendant 10 jours consécutifs.
# Les résultats sont présentés dans le tableau IX ci-après et illustrent la survie pendant trois mois des animaux traités. (Une survie de plusieurs jours n'est pas prise en considération).
# Ascite d'Ehrlich [6] = test: Ehrlich ascites tumour in the mouse, sempervirine; type: in vivo, souris BALB c; settings: for survie (surviving mice/total): i.p. 300 µg par jour in two doses, 10 days from day 2
# Description: Les résultats sont présentés dans le tableau X ci-après et illustrent la survie des animaux pendant trois mois, une survie de plusieurs jours n'étant pas prise en considération.
# virus de la vaccine = test system: virus de la vaccine; design: species or system lapin; settings: in vivo
compound,measurement,setting,value
COC(=O)C1=CO[C@@H](C)[C@@H]2Cn3ccc4c5ccccc5nc-4c3C[C@H]12 [alstonine],destruction des cellules,[1],Pas de destruction pendant 8 jours
same,destruction des cellules,Cellules K.B.,Destruction totale en 24-48 heures
same,"POIDS MOYEN (en grammes) DES TUMEURS, AU 16è JOUR",tumeur MS 301,"1,7 (compris entre 0,8 et 2,6) grammes"
same,survie (in words),"lymphome YC 8 [2]; alstonine seule, same doses, voie sous-cutanée",ne survivent pas plus longtemps que les souris témoins
same,survie (surviving mice/total),lymphome YC 8 [2]; day 0,10/10
same,survie (surviving mice/total),lymphome YC 8 [2]; day 22,7/10
same,survie (surviving mice/total),lymphome YC 8 [2]; day 60,4/10
same,survie (surviving mice/total),lymphome YC 8 [2]; day 90,4/10
same,definitive arrest of the Ehrlich ascites tumour (in words),Ascite d'Ehrlich [3],ne peuvent définitivement arrêter la tumeur ascitique d'Ehrlich
same,activity against influenza compared with sempervirine,virus de la grippe,résultats tout à fait comparables
same,survie and tumour evolution (in words),Ascite d'Ehrlich [4],sans effet sur la survie définitive des souris
COC(=O)C1=CO[C@@H](C)[C@H]2Cn3ccc4c5ccccc5nc-4c3C[C@H]12 [serpentine],destruction des cellules,[1],Pas de destruction pendant 8 jours
same,destruction des cellules,Cellules K.B.,Destruction totale en 24-48 heures
same,destruction des cellules saines,cellules saines,aucune destruction des cellules saines
same,destruction des cellules cancéreuses,cellules cancéreuses,toutes les cellules cancéreuses étaient détruites
same,"POIDS MOYEN (en grammes) DES TUMEURS, AU 16è JOUR",tumeur MS 301,"1,6 (compris entre 0,9 et 2,5) grammes"
same,survie (surviving mice/total),Ascite d'Ehrlich [3]; day 0,10/10
same,survie (surviving mice/total),Ascite d'Ehrlich [3]; day 25,10/10
same,survie (surviving mice/total),Ascite d'Ehrlich [3]; day 35,0/10
same,definitive arrest of the Ehrlich ascites tumour (in words),Ascite d'Ehrlich [3],ne peuvent définitivement arrêter la tumeur ascitique d'Ehrlich
same,"évolution de la tumeur d'Ehrlich (figure, weight of mice against days of treatment)","Ascite d'Ehrlich [3]; voie intrapéritonéale, doses as above, curves 2, 3, 4",net ralentissement du poids des tumeurs
same,activity against influenza compared with sempervirine,virus de la grippe,résultats tout à fait comparables
same,"clinical outcome, case 1 (Madame M.)","cancers du sein; after one month, 100mg en microgranules par jour per os in two doses, after irradiation",régression des deux tumeurs
same,"clinical outcome, case 3 (Madame L.)","cancers du sein; bone metastases, sustained-release microgranules, 6 months of treatment",La fracture du col du fémur se consolide ainsi que disparait la métastase calcanéenne
same,"clinical outcome, case 1 (Madame M.)","cancers du sein; during 6 months of treatment, 100mg en microgranules par jour per os",la tumeur du sein diminue et disparait alors que le squirrhe lui-même régresse considérablement
same,"clinical outcome, case 2 (Madame P.)","cancers du sein; three months, microgranules 100 mg par jour per os in two doses, after radiotherapy and local excision",la douleur qui persistait après l'intervention disparait progressivement et le sein prend un aspect normal et indolore
same,survie and tumour evolution (in words),Ascite d'Ehrlich [4],sans effet sur la survie définitive des souris
c1ccc2c3ccn4cc5c(cc4c-3nc2c1)CCCC5 [sempervirine],destruction des cellules,[1],Pas de destruction pendant 8 jours
same,destruction des cellules,Cellules K.B.,Destruction totale en 24-48 heures
same,destruction des cellules saines,cellules saines,aucune destruction des cellules saines
same,destruction des cellules cancéreuses,cellules cancéreuses,toutes les cellules cancéreuses étaient détruites
same,survie (surviving mice/total),"lymphome YC 8 [5]; day 0, i.p. 300 µg par jour in two doses",24/24
same,survie (surviving mice/total),"lymphome YC 8 [5]; day 20, i.p. 300 µ g par jour in two doses",24/24
same,survie (surviving mice/total),"lymphome YC 8 [5]; day 60, i.p. 300 µg par jour in two doses",20/24
same,survie (surviving mice/total),"lymphome YC 8 [5]; day 90, i.p. 300 µg par jour in two doses",20/24
same,state of the surviving mice,"lymphome YC 8 [5]; i.p. treated survivors, kept more than three months",tout à fait normales
same,survie (in words),lymphome YC 8 [5]; voie sous-cutanée,ne survivent pas très longtemps après les souris témoins
same,survie (surviving mice/total),Ascite d'Ehrlich [6]; day 0,20/20
same,survie (surviving mice/total),Ascite d'Ehrlich [6]; day 21,15/20
same,survie (surviving mice/total),Ascite d'Ehrlich [6]; day 60,10/20
same,survie (surviving mice/total),Ascite d'Ehrlich [6]; day 90,10/20
same,"guérison définitive, proportion of mice","Ascite d'Ehrlich [6]; sempervirine seule, same results in souris blanches SWISS",~50%
same,appearance of papules,virus de la vaccine,non apparition de papules ou apparition de papules dont la tailla est considérablement diminuée
same,lung lobes affected by the virus (congestion),"virus de la grippe; […], in controls half of the lobes affected",0 ou 1 lobe par poumon atteint
same,survie (surviving mice/total),"virus de la grippe; day 0, Groupe B: treated from inoculation",10/10
same,survie (surviving mice/total),"virus de la grippe; day 0, Groupe C: treated from 24 h after inoculation",10/10
same,survie (surviving mice/total),"virus de la grippe; day 10, Groupe B: treated from inoculation",10/10
same,survie (surviving mice/total),"virus de la grippe; day 10, Groupe C: treated from 24 h after inoculation",10/10
same,survie (surviving mice/total),"virus de la grippe; day 16, Groupe B: treated from inoculation",8/10
same,survie (surviving mice/total),"virus de la grippe; day 16, Groupe C: treated from 24 h after inoculation",6/10
